Active and inactive are the calls of the source. No cut-off for these calls is given here.
Experiments:
[1] = target: Mitogen-activated protein kinase 3 (Homo sapiens) (UniProt P27361); assay: Inhibition of ErK1 (unknown origin) at 10 uM after 40 mins by scintillation counting analysis
[2] = target: Tyrosine-protein kinase SYK (Homo sapiens) (UniProt P43405); assay: Inhibition of SYK (unknown origin) at 10 uM after 40 mins by scintillation counting analysis
[3] = target: Macrophage-stimulating protein receptor (Homo sapiens) (UniProt Q04912); assay: Inhibition of RON (unknown origin) at 10 uM after 40 mins by scintillation counting analysis
[4] = target: Mast/stem cell growth factor receptor Kit (Homo sapiens) (UniProt P10721); assay: Inhibition of c-Kit (unknown origin) at 10 uM after 40 mins by scintillation counting analysis
[5] = target: T1, Macrophage colony-stimulating factor 1 receptor (Homo sapiens, UniProt P07333); assay: Inhibition of FMS (unknown origin) at 10 uM after 40 mins by scintillation counting analysis
[6] = target: T2, Tyrosine-protein kinase Lyn (Homo sapiens, UniProt P07948); assay: Inhibition of Lyn (unknown origin) at 10 uM after 40 mins by scintillation counting analysis
[7] = target: ALK tyrosine kinase receptor (Homo sapiens) (UniProt Q9UM73); assay: Inhibition of ALK (unknown origin) at 10 uM after 40 mins by scintillation counting analysis
[8] = target: Receptor-type tyrosine-protein kinase FLT3 (Homo sapiens) (UniProt P36888); assay: Inhibition of FLT3 (unknown origin) at 10 uM after 40 mins by scintillation counting analysis
[9] = target: Cyclin-dependent kinase 1/cyclin B (Homo sapiens) (UniProt P06493+P14635+Q8WWL7+O95067); assay: Inhibition of CDK1/cyclin B (unknown origin) at 10 uM after 40 mins by scintillation counting analysis; type: protein-complex assay
[10] = target: Fibroblast growth factor receptor 3 (Homo sapiens) (UniProt P22607); assay: Inhibition of FGFR3 (unknown origin) at 10 uM after 40 mins by scintillation counting analysis
[11] = target: Mitogen-activated protein kinase 10 (Homo sapiens) (UniProt P53779); assay: Inhibition of JNK3 (unknown origin) at 10 uM after 40 mins by scintillation counting analysis
[12] = system: A375P; assay: Antiproliferative activity against human A375P cells after 24 hrs by MTT assay; type: functional, cell-based
[13] = target: cAMP-dependent protein kinase (PKA) (Homo sapiens) (UniProt P22694+P17612+P22612); assay: Inhibition of PKA (unknown origin) at 10 uM after 40 mins by scintillation counting analysis; type: protein assay
[14] = target: Focal adhesion kinase 1 (Homo sapiens) (UniProt Q05397); assay: Inhibition of FAK (unknown origin) at 10 uM after 40 mins by scintillation counting analysis
[15] = target: Hepatocyte growth factor receptor (Homo sapiens) (UniProt P08581); assay: Inhibition of c-MET (unknown origin) at 10 uM after 40 mins by scintillation counting analysis
[16] = target: T3, RAF proto-oncogene serine/threonine-protein kinase (Homo sapiens, UniProt P04049); assay: Inhibition of C-Raf (unknown origin) after 40 mins by scintillation counting analysis
[17] = target: T4, Serine/threonine-protein kinase B-raf (Homo sapiens, UniProt P15056); assay: Inhibition of BRAF (unknown origin) after 40 mins by scintillation counting analysis
[18] = system: U-937; assay: Antiproliferative activity against human U937 cells after 24 hrs by MTT assay; type: functional; settings: U-937, 24 h
[19] = target: Insulin-like growth factor 1 receptor (Homo sapiens) (UniProt P08069); assay: Inhibition of IGF1R (unknown origin) at 10 uM after 40 mins by scintillation counting analysis
[20] = target: T4, Serine/threonine-protein kinase B-raf; assay: Inhibition of BRAF (unknown origin) at 10 uM after 40 mins by scintillation counting analysis
[21] = target: Epidermal growth factor receptor (Homo sapiens) (UniProt P00533); assay: Inhibition of EGFR (unknown origin) at 10 uM after 40 mins by scintillation counting analysis
[22] = target: Aurora kinase A (Homo sapiens) (UniProt O14965); assay: Inhibition of Aurora A (unknown origin) at 10 uM after 40 mins by scintillation counting analysis
[23] = target: Glycogen synthase kinase-3 beta (Homo sapiens) (UniProt P49841); assay: Inhibition of GSK3b (unknown origin) at 10 uM after 40 mins by scintillation counting analysis
[24] = Cytotoxicity against human HS27 cells after 24 hrs by MTT assay; type: cell-based
[25] = target: Serine/threonine-protein kinase PLK1 (Homo sapiens) (UniProt P53350); assay: Inhibition of PLK1 (unknown origin) at 10 uM after 40 mins by scintillation counting analysis
[26] = system: Serine/threonine-protein kinase B-raf (Homo sapiens), P15056 [V600E]; assay: Inhibition of BRAF V599E mutant (unknown origin) at 10 uM after 40 mins by scintillation counting analysis
[27] = target: Vascular endothelial growth factor receptor 2 (Homo sapiens) (UniProt P35968); assay: Inhibition of VEGFR2 (unknown origin) at 10 uM after 40 mins by scintillation counting analysis
[28] = target: RAC-alpha serine/threonine-protein kinase (Homo sapiens) (UniProt P31749); assay: Inhibition of AKT1 (unknown origin) at 10 uM after 40 mins by scintillation counting analysis
[29] = target: T1, Macrophage colony-stimulating factor 1 receptor; assay: Inhibition of FMS (unknown origin) after 40 mins by scintillation counting analysis
[30] = target: Fibroblast growth factor receptor 2 (Homo sapiens) (UniProt P21802); assay: Inhibition of FGFR2 (unknown origin) at 10 uM after 40 mins by scintillation counting analysis
[31] = target: Proto-oncogene tyrosine-protein kinase ROS (Homo sapiens) (UniProt P08922); assay: Inhibition of ROS1 (unknown origin) at 10 uM after 40 mins by scintillation counting analysis
[32] = target: Serine/threonine-protein kinase B-raf (Homo sapiens, UniProt P15056, V600E); assay: Inhibition of BRAF V599E mutant (unknown origin) after 40 mins by scintillation counting analysis
[33] = target: Dual specificity mitogen-activated protein kinase kinase 1 (Homo sapiens) (UniProt Q02750); assay: Inhibition of MEK1 (unknown origin) at 10 uM after 40 mins by scintillation counting analysis
[34] = target: T2, Tyrosine-protein kinase Lyn; assay: Inhibition of Lyn (unknown origin) after 40 mins by scintillation counting analysis
[35] = target: Cyclin-dependent kinase 2/cyclin E (Homo sapiens) (UniProt P24864+P24941+O96020); assay: Inhibition of CDK2/cyclin E (unknown origin) at 10 uM after 40 mins by scintillation counting analysis; type: protein-complex assay
[36] = target: Tyrosine-protein kinase JAK3 (Homo sapiens) (UniProt P52333); assay: Inhibition of Jak3 (unknown origin) at 10 uM after 40 mins by scintillation counting analysis
[37] = target: Serine/threonine-protein kinase mTOR (Homo sapiens, UniProt P42345); assay: Inhibition of mTOR (unknown origin) at 10 uM after 40 mins by scintillation counting analysis
[38] = target: T3, RAF proto-oncogene serine/threonine-protein kinase; assay: Inhibition of RAF1 (unknown origin) at 10 uM after 40 mins by scintillation counting analysis

T3 sequence (P04049 whole entry): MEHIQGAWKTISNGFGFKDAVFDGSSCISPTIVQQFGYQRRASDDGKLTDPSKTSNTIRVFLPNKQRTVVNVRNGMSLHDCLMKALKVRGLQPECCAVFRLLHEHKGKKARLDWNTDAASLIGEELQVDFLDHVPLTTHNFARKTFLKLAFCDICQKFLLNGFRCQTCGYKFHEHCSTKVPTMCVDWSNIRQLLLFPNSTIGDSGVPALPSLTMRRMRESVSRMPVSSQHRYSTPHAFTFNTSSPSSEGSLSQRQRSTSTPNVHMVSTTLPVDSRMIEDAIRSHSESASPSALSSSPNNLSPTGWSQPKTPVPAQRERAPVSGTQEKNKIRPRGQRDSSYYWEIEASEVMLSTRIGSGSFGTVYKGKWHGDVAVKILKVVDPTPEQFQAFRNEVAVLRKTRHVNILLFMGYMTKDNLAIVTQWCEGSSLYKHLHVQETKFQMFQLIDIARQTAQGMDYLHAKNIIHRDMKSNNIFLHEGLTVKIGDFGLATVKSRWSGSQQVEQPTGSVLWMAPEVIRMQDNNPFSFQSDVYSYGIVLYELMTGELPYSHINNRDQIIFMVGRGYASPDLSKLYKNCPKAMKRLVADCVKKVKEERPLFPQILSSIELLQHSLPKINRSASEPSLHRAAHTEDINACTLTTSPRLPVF
T4 sequence (P15056 whole entry): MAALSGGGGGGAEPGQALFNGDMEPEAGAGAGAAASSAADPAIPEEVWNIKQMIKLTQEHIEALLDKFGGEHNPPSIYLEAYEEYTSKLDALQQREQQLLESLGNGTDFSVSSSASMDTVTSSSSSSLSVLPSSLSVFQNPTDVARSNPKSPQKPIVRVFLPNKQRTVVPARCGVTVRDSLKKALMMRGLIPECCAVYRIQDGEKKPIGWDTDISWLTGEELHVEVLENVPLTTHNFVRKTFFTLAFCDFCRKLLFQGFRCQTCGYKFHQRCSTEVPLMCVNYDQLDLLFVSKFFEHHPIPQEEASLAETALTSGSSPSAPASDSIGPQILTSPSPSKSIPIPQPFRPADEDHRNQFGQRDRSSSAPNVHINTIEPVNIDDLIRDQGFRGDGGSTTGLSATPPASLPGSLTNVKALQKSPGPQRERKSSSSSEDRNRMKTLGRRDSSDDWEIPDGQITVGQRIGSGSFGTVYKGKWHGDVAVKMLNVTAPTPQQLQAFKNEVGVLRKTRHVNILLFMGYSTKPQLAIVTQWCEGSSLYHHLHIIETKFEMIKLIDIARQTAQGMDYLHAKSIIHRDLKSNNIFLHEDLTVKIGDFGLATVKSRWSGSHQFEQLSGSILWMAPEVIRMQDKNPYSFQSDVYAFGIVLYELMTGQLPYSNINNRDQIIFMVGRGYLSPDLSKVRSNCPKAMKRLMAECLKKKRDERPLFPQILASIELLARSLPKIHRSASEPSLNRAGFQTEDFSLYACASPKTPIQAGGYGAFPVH
T1 sequence (P07333 whole entry): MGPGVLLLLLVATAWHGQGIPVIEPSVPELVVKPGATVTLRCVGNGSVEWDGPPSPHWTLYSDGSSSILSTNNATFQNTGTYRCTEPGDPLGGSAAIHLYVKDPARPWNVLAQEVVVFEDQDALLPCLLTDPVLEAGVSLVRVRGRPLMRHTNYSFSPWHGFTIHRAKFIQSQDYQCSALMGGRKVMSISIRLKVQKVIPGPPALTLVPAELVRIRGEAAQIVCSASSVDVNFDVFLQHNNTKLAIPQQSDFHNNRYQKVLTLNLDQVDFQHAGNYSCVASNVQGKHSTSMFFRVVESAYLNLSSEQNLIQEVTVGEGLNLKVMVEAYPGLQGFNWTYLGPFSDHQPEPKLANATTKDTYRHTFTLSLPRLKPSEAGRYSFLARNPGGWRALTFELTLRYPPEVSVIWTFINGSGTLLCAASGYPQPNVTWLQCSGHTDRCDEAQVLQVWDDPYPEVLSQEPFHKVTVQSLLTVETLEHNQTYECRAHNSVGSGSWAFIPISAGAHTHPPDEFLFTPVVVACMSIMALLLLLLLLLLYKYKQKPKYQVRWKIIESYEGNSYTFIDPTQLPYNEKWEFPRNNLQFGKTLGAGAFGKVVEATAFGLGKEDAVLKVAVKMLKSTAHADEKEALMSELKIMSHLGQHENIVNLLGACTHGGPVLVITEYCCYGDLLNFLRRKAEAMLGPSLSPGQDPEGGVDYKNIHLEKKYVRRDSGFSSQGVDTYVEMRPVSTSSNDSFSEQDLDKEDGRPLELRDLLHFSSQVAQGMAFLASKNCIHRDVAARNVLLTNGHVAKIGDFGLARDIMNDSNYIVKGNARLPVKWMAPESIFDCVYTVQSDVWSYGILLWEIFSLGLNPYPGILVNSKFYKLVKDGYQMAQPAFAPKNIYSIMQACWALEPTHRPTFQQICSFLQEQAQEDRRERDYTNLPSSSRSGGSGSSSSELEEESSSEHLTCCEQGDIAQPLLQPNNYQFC
Sequence of Vascular endothelial growth factor receptor 2 (Homo sapiens) (P35968 whole entry): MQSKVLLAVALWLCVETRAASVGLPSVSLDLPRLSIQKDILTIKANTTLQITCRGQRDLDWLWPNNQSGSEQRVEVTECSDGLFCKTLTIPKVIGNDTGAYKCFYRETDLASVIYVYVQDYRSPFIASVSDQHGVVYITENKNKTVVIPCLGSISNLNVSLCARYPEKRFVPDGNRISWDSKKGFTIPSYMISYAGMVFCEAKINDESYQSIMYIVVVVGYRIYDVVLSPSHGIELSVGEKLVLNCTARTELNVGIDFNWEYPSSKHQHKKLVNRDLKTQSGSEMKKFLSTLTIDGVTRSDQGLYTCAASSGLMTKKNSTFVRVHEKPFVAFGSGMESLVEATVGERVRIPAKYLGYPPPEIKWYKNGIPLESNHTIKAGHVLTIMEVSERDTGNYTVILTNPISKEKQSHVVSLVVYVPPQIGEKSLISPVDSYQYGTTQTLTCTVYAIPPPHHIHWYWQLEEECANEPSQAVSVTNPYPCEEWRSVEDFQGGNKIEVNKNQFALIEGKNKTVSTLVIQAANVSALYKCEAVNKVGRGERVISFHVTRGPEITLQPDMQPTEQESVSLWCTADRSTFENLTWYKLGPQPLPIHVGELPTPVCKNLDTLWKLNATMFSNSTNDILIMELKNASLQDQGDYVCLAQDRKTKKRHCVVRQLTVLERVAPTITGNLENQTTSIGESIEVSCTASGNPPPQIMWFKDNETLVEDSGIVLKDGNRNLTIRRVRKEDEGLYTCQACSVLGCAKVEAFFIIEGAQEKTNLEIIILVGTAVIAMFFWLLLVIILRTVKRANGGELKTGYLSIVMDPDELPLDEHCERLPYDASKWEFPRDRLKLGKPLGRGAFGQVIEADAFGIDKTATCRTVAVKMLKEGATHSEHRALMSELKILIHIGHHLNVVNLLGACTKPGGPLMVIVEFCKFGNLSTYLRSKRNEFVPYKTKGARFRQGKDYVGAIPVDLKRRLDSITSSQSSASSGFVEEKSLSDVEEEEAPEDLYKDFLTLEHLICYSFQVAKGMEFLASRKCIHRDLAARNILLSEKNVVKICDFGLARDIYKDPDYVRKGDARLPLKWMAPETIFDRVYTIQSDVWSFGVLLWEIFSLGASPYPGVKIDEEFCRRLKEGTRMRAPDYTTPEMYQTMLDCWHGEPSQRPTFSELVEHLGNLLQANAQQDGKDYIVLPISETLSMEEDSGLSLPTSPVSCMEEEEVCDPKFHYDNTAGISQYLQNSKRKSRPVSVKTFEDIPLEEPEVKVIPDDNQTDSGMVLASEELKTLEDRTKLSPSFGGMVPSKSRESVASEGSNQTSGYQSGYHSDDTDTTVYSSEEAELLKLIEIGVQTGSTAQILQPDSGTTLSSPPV
Sequence of Mast/stem cell growth factor receptor Kit (Homo sapiens) (P10721 whole entry): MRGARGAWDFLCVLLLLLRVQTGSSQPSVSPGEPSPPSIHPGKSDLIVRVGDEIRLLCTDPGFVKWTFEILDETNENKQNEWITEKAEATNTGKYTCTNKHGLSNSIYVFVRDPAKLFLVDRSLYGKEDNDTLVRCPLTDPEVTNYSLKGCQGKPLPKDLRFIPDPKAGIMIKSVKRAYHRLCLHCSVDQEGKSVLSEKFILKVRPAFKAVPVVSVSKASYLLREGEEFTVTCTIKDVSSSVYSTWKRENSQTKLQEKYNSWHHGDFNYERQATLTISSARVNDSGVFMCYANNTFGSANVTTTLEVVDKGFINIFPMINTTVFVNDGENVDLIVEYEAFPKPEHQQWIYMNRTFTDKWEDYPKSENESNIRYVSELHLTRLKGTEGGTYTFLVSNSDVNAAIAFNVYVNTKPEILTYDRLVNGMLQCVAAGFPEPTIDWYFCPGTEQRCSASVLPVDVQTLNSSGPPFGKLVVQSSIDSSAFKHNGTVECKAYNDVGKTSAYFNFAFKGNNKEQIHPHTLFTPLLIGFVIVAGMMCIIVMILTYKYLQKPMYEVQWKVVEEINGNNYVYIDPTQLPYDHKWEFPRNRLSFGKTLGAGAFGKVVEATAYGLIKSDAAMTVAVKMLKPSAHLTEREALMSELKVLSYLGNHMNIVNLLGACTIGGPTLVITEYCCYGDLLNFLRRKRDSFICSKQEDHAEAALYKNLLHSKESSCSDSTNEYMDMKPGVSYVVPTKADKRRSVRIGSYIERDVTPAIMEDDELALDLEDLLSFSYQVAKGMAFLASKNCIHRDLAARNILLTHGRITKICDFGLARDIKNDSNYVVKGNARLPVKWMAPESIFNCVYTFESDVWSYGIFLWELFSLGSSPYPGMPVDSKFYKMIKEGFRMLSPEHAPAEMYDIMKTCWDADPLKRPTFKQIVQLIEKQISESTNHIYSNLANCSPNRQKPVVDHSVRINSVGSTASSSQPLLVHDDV
Sequence of Mitogen-activated protein kinase 3 (Homo sapiens) (P27361 whole entry): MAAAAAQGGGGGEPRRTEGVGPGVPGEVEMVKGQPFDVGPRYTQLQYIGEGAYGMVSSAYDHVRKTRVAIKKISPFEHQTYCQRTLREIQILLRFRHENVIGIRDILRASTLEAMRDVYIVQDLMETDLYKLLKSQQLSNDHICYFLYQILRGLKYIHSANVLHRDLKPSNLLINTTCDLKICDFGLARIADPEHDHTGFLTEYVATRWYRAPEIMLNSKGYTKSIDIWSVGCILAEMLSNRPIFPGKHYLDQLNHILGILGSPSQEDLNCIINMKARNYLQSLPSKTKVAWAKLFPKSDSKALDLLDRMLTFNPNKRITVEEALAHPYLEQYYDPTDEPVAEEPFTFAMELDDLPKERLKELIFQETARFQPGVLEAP

`Cc1ccc(NC(=O)c2cc(N3CCN(C)CC3)cc(C(F)(F)F)c2)cc1NC(=O)c1cnoc1C` showed an inhibition [1] of 7.54%, an inhibition [2] of 3.81% and an inhibition [3] of 0%. It also gave an inhibition [4] of 7.5%, an inhibition [5] of 98.7% and an inhibition [6] of 97.8%. For the same compound, the inhibition [7] was 0%, the inhibition [8] was 2.12% and the inhibition [9] was 0%. The inhibition [10] was 0%, the inhibition [11] was 15.3% and the Activity [12] was “inactive”. It also gave an inhibition [13] of 0%, an inhibition [14] of 0% and an inhibition [15] of 0%. It also gave an IC50 [16] of 0.0448 µM, an IC50 [17] of 5.96 µM and a GI50 [18] of 0.016 µM. It also gave an inhibition [19] of 0%, an inhibition [20] of 61.2% and an inhibition [21] of 4.68%. For the same compound, the inhibition [22] was 0%, the inhibition [23] was 0% and the GI50 at 24 h [24] was greater than 30 µM. For the same compound, the inhibition [25] was 0%, the inhibition [26] was 87.9% and the inhibition [27] was 8.27%. The inhibition [28] was 5.73%, the IC50 [29] was 0.00995 µM and the inhibition [30] was 3.6%. The inhibition [31] was 0%, the IC50 [32] was 0.668 µM and the inhibition [33] was 0%. It also gave an IC50 [34] of 0.0659 µM, an inhibition [35] of 1.85% and an inhibition [36] of 0%. The inhibition [37] was 1.14% and the inhibition [38] was 95.9%.
